Values belong to the molecule of their own block, whether it stands above or below them.
Columns and labels:
[1] = Pharmacokinetic evaluation (1): cassette PK in Balb/c male mice, plasma; assay type: in vivo; conditions: for AUC(0-t) / C0 / clearance / half-life / Vd / Cmax / Tmax: male, Balb/c; for AUC(0-t) / C0 / clearance / half-life / Vd / Cmax / Tmax / Tlast: mouse plasma; for Vd: read-out: Vdss; for Tmax: read-out: Tmax; for F: mouse
Protocol: Test compounds were mixed with 10% dimethyl sulfoxide/50% polyethylene glycol 200/40% water (compounds 1, 4, 10, 17) or 20% N,N-dimethylacetamide/80% water (compound 5), vortexed and sonicated to prepare a nearly clear solution of 0.08 mg/mL (compounds 1, 4, 10, 17) or 0.50 mg/mL (compound 5), then filtered through a microporous membrane for next step. Balb/c male mice of 18 to 20 grams were selected and administered intravenously with the candidate compound solution at a dose of 0.4 (compounds 1, 4, 10, 17) or 1 mg/kg (compound 5). Test compounds were mixed with 10% dimethyl sulfoxide/50% polyethylene glycol 200/40% water (compounds 1, 4, 10, 17) or 20%-hydroxypropyl-β-cyclodextrin (compound 5), vortexed and sonicated to prepare a nearly clear solution of 0.2 mg/mL (compounds 1, 4, 10, 17) or 1 mg/mL (compound 5), then filtered through a microporous membrane for next step. Balb/c male mice of 18 to 20 grams were selected and orally administered with the candidate compound solution at a dose of 2 (compounds 1, 4, 10, 17) or 5 mg/kg (compound 5). Whole blood was collected for a certain period of time, and plasma was prepared, then drug concentration was detected by LC-MS/MS method, and pharmacokinetic parameters were calculated by Phoenix WinNonlin software (Pharsight, USA).
(§1) IV: intravenous injection; PO: oral; C0: instantaneous […] concentration after intravenous injection; Cmax: highest plasma concentration after administration; Tmax: time required to reach peak of drug concentration after administration; T1/2: time required for the plasma drug concentration to decrease by half, Vdss: apparent volume of distribution, refers to the proportional constant of the drug dose in vivo and the blood drug concentration when the drug reaches a dynamic equilibrium in vivo. Cl: clearance rate, refers to the […] cleared from the body per unit time; Tlast: time at the last detection point; AUC0-last: area under the drug-time curve, refers to the area covered by the plasma concentration curve and the time axis; F: a measure of the speed and degree of drug absorption into the blood circulation, which is an important indicator for evaluating the degree of drug absorption.

[2] = Pharmacokinetic evaluation in Beagle dogs; assay type: in vivo, Male Beagle dogs; conditions: for Tlast / AUC(0-t) / C0 / clearance / half-life / Vd / Cmax / Tmax: Beagle dog plasma; for F: Beagle dog, PO 5 mpk vs IV 1 mpk; for AUC(0-t) / C0 / clearance / half-life / Vd / Cmax / Tmax: male; for Vd: read-out: Vdss
Excerpt: as §1
(§2) Test compounds were mixed with 10% dimethyl sulfoxide/50% polyethylene glycol 200/40% water, vortexed and sonicated to prepare a nearly clear solution of 1 mg/mL, then filtered through a microporous membrane for next step. Male Beagle dogs were selected and administered intravenously with the candidate compound solution at a dose of 1 mg/kg. Test compounds were mixed with 10% dimethyl sulfoxide/50% polyethylene glycol 200/40% water, vortexed and sonicated to prepare a nearly clear solution of 1 mg/mL, then filtered with a microporous membrane for next step. Male Beagle dogs were selected and orally administered with the candidate compound solution at a dose of 5 mg/kg. Whole blood was collected for a certain period of time, and plasma was prepared, then drug concentration was detected by LC-MS/MS method, and pharmacokinetic parameters were calculated by Phoenix WinNonlin software (Pharsight, USA).

[3] = Pharmacokinetic evaluation in mice (2), plasma; assay type: in vivo, Balb/c male mice
Excerpt: as §1
Test compounds were mixed with […]/50% polyethylene glycol 200/40% water, vortexed and sonicated to prepare a nearly clear solution of 0.4 mg/mL (compound 5), then filtered through a microporous membrane for next step. Balb/c male mice of 18 to 20 grams were selected and administered intravenously with the candidate compound solution at a dose of 2 mg/kg. Test compounds were mixed with 10% dimethyl sulfoxide/50% polyethylene glycol 200/40% water, vortexed and sonicated to prepare a nearly clear solution of 1 mg/mL, then filtered with a microporous membrane for next step. Balb/c male mice of 18 to 20 grams were selected and orally administered with the candidate compound solution at a dose of 10 mg/kg. Whole blood was collected for a certain period of time, and plasma was prepared, then drug concentration was detected by LC-MS/MS method, and pharmacokinetic parameters were calculated by Phoenix WinNonlin software (Pharsight, USA).

[4] = Pharmacokinetic evaluation in cynomolgus monkeys; assay type: in vivo, Male cynomolgus monkeys
Excerpt: as §1
as §2, with “compound was” for “compounds were”, “cynomolgus monkeys” for “Beagle dogs”

[5] = male, Balb/c, 2 mg/kg, mouse plasma, IV 2 mpk
[6] = male, Balb/c, 10 mg/kg, mouse plasma, PO 10 mpk
[7] = male, 1 mg/kg, cynomolgus monkey plasma, IV 1 mpk
[8] = male, 5 mg/kg, cynomolgus monkey plasma, PO 5 mpk

AUC(0-t) ([1]; IV 1 mg/kg): 1.66 µM·h
C0 ([1]; IV 1 mg/kg): 3600 nM
clearance ([1]; IV 1 mg/kg): 24.7 mL/min/kg
half-life ([1]; IV 1 mg/kg): 76.8 min
Vd ([1]; IV 1 mg/kg): 1.49 L/kg
AUC(0-t) ([1]; PO 5 mg/kg): 3.49 µM·h
Cmax ([1]; PO 5 mg/kg): 2170 nM
half-life ([1]; PO 5 mg/kg): 231 min
Tmax ([1]; PO 5 mg/kg): 15 min
Tlast ([1]; PO 5 mg/kg): 10 h
F ([1]; PO 5 mg/kg vs IV 1 mg/kg): 44.5%
Tlast ([2]; IV 1 mpk): 24 h
Tlast ([2]; PO 5 mpk): 24 h
F [2]: 279%
AUC(0-t) ([2]; 1 mg/kg, IV 1 mpk): 4.96 µM·h
C0 ([2]; 1 mg/kg, IV 1 mpk): 1820 nM
clearance ([2]; 1 mg/kg, IV 1 mpk): 8.26 mL/min/kg
half-life ([2]; 1 mg/kg, IV 1 mpk): 242 min
Vd ([2]; 1 mg/kg, IV 1 mpk): 1.87 L/kg
AUC(0-t) ([2]; 5 mg/kg, PO 5 mpk): 68.3 µM·h
Cmax ([2]; 5 mg/kg, PO 5 mpk): 9.27 µM
Tmax ([2]; 5 mg/kg, PO 5 mpk): 1.67 h
half-life ([2]; 5 mg/kg, PO 5 mpk): 256 min
AUC(0-t) [3, 5]: 3.45 µM·h
C0 [3, 5]: 4.74 µM
clearance [3, 5]: 23.7 mL/min/kg
half-life [3, 5]: 44 min
Vd ([3]; male, Balb/c, 2 mg/kg, mouse plasma, IV 2 mpk, read-out: Vdss): 1.07 L/kg
AUC(0-t) [3, 6]: 23.2 µM·h
Cmax [3, 6]: 11.4 µM
Tmax [3, 6]: 30 min
half-life [3, 6]: 51 min
Tlast ([3]; mouse plasma, IV 2 mpk): 8 h
Tlast ([3]; mouse plasma, PO 10 mpk): 10 h
F ([3]; mouse, PO 10 mpk vs IV 2 mpk): 134%
Tlast ([4]; cynomolgus monkey plasma, PO 5 mpk): 12 h
F ([4]; cynomolgus monkey, PO 5 mpk vs IV 1 mpk): 115%
AUC(0-t) [4, 7]: 2.44 µM·h
C0 [4, 7]: 2290 nM
clearance [4, 7]: 16.8 mL/min/kg
half-life [4, 7]: 216 min
Vd ([4]; male, 1 mg/kg, cynomolgus monkey plasma, IV 1 mpk, read-out: Vdss): 1.52 L/kg
AUC(0-t) [4, 8]: 14 µM·h
Cmax [4, 8]: 4.5 µM
Tmax [4, 8]: 1.17 h
half-life [4, 8]: 81 min
Compound: Cc1cc2ncnn2cc1Nc1ncc2c(n1)n(N1CC3CCC(C1)O3)c(=O)n2C [Compound 5]

AUC(0-t) ([1]; IV 0.4 mg/kg): 0.47 µM·h
C0 ([1]; IV 0.4 mg/kg): 748 nM
clearance ([1]; IV 0.4 mg/kg): 34.7 mL/min/kg
half-life ([1]; IV 0.4 mg/kg): 33.5 min
Vd ([1]; IV 0.4 mg/kg): 1.39 L/kg
AUC(0-t) ([1]; PO 2 mg/kg): 3.4 µM·h
Cmax ([1]; PO 2 mg/kg): 1540 nM
half-life ([1]; PO 2 mg/kg): 48.6 min
Tmax ([1]; PO 2 mg/kg): 60 min
Tlast ([1]; IV 0.4 mg/kg): 4 h
Tlast ([1]; PO 2 mg/kg): 8 h
F ([1]; PO 2 mg/kg vs IV 0.4 mg/kg): 144%
Tlast ([2]; IV 1 mpk): 24 h
Tlast ([2]; PO 5 mpk): 24 h
F [2]: 92.3%
AUC(0-t) ([2]; 1 mg/kg, IV 1 mpk): 6.82 µM·h
C0 ([2]; 1 mg/kg, IV 1 mpk): 1450 nM
clearance ([2]; 1 mg/kg, IV 1 mpk): 5.89 mL/min/kg
half-life ([2]; 1 mg/kg, IV 1 mpk): 302 min
Vd ([2]; 1 mg/kg, IV 1 mpk): 1.58 L/kg
AUC(0-t) ([2]; 5 mg/kg, PO 5 mpk): 31.5 µM·h
Cmax ([2]; 5 mg/kg, PO 5 mpk): 4.94 µM
Tmax ([2]; 5 mg/kg, PO 5 mpk): 1.5 h
half-life ([2]; 5 mg/kg, PO 5 mpk): 256 min
Compound: Cc1cc2nncn2cc1Nc1ncc2c(n1)n(N1CC3CCC(C1)O3)c(=O)n2C [Compound 17]
